Paper PMC12198282, “Application of a high-density microelectrode array assay using a 3D human iPSC-derived brain microphysiological system model for in vitro neurotoxicity screening of environmental compounds” (Archives of Toxicology, 2025)
“Also recorded” adds a separate entry of the source. Like-named read-outs stand apart in the source and are kept apart here.

Legend:
BrainSpheres = assay: Cytotoxicity evaluation, resazurin assay (BrainSphere.Cyto); format: cell-based, human; as to hitc BrainSphere.Cyto: key: 1 (active); 0 (inactive)
Experimental: For the resazurin assay, BrainSpheres were cultured for 7 weeks in non-treated 6-well plates under gyratory shaking. Subsequently, the cells were exposed in the same manner as the HD-MEA plates. This assay was used to determine cell viability after exposure for 13 days to the different compounds. After exposure, resazurin diluted in PBS was added directly to the 6-well plates to a final concentration of 0.1 mg/ml. The plates were then put in an incubator for 3 h at 37 °C, 5% CO2. Then, 100 µl of the media was collected and transferred in a 96-well plate for fluorescence analysis, which was done at ex:530 nm/em:590 nm in a multi-well fluorometric reader CytoFluor series 4000 (PerSeptive Biosystems, Inc).
Ten metrics were measured to evaluate changes in neural activity in the BrainSphere MEA assay (Table 3). Considering the complexity of the data which includes seven recording days for each single ROI in a well, an area under the curve (AUC) metric was used to reduce activity across time as described in previous publications (Brown et al. [2016]; Frank et al. [2017b]; Shafer et al. [2019]). […] For concentration–response modeling, the mean AUC values across all the BrainSpheres per well (technical replicates) was computed for each endpoint, such that each concentration included biological replicates from at least three separate wells on three separate plates, representing each individual experiment. The mean AUC values were used for concentration–response modeling using the R package tcplfit2 (version 0.1.6) (Sheffield et al. [2022]). Data were normalized as a percent of vehicle control wells by plate using the equation: resp.pc=rval-bval/bval×100 where resp.pc is the percent of control value, rval is the response value, and bval is the baseline value (defined as the mean of the vehicle control and the lowest tested concentration). […] The activity cutoff was defined as 3 times the median absolute deviation (bmad) of baseline values. A curve was defined as ‘active’ if the continuous hit call was ≥ 0.9. See Supplemental Table 1 for the bmad, activity cutoff threshold, SD, and benchmark response for each endpoint in the BrainSphere MEA. Potency was defined as the concentration at 50% maximal activity (AC50 log10 µM).

2D rat cortical cultures [1] = details: cited from earlier work; for Bioactivity in the rNFA (in words): ref Brown et al. [2016], Carstens et al. [2022], Frank et al. [2017b], Shafer et al. [2019], ToxCast invitrodb (v4.2)
2D rat cortical cultures [2] = details: rNFA mc5 hit call; cytotoxicity AlamarBlue; cited from earlier work
For hitc CCTE Shafer MEA dev active electrodes number in this document: key: 1 (active); 0 (inactive).
For hitc CCTE Shafer MEA dev burst duration mean in this document: key: 1 (active); 0 (inactive).
For hitc CCTE Shafer MEA dev burst rate in this document: key: 1 (active); 0 (inactive).
For hitc CCTE Shafer MEA dev bursting electrodes number in this document: key: 1 (active); 0 (inactive).
For hitc CCTE Shafer MEA dev correlation coefficient mean in this document: key: 1 (active); 0 (inactive).
For hitc CCTE Shafer MEA dev firing rate mean in this document: key: 1 (active); 0 (inactive).
For hitc CCTE Shafer MEA dev inter network spike interval mean in this document: key: 1 (active); 0 (inactive).
For hitc CCTE Shafer MEA dev interburst interval mean in this document: key: 1 (active); 0 (inactive).
For hitc CCTE Shafer MEA dev mutual information norm in this document: key: 1 (active); 0 (inactive).
For hitc CCTE Shafer MEA dev network spike duration std in this document: key: 1 (active); 0 (inactive).
For hitc CCTE Shafer MEA dev network spike number in this document: key: 1 (active); 0 (inactive).
For hitc CCTE Shafer MEA dev network spike peak in this document: key: 1 (active); 0 (inactive).
For hitc CCTE Shafer MEA dev per burst interspike interval in this document: key: 1 (active); 0 (inactive).
For hitc CCTE Shafer MEA dev per burst spike percent in this document: key: 1 (active); 0 (inactive).
For hitc CCTE Shafer MEA dev per network spike spike number mean in this document: key: 1 (active); 0 (inactive).
For hitc CCTE Shafer MEA dev per network spike spike percent in this document: key: 1 (active); 0 (inactive).
For hitc CCTE Shafer MEA dev spike duration mean in this document: key: 1 (active); 0 (inactive).

SMILES: CC(=O)Nc1ccc(O)cc1 [Acetaminophen]
- AC50 (BrainSpheres; Homo sapiens, 312 h, read-out: ac50 BrainSphere.Cyto): 45 µM
- BMD BrainSphere.Cyto (BrainSpheres; human): 174 µM
- Cytotoxicity hit (BrainSpheres; human): 0
- hitc BrainSphere.Cyto (BrainSpheres; human): 0
- hitc CCTE_Shafer_MEA_dev_active_electrodes_number (2D rat cortical cultures [1]; rNFA mc5 hit call, aenm active_electrodes_number): 0
- hitc CCTE_Shafer_MEA_dev_burst_duration_mean (2D rat cortical cultures [1]; rNFA mc5 hit call, aenm burst_duration_mean): 0
- hitc CCTE_Shafer_MEA_dev_burst_rate (2D rat cortical cultures [1]; rNFA mc5 hit call, aenm burst_rate): 0
- hitc CCTE_Shafer_MEA_dev_bursting_electrodes_number (2D rat cortical cultures [1]; rNFA mc5 hit call, aenm bursting_electrodes_number): 0
- hitc CCTE_Shafer_MEA_dev_correlation_coefficient_mean (2D rat cortical cultures [1]; rNFA mc5 hit call, aenm correlation_coefficient_mean): 0
- hitc CCTE_Shafer_MEA_dev_firing_rate_mean (2D rat cortical cultures [1]; rNFA mc5 hit call, aenm firing_rate_mean): 0
- hitc CCTE_Shafer_MEA_dev_inter_network_spike_interval_mean (2D rat cortical cultures [1]; rNFA mc5 hit call, aenm inter_network_spike_interval_mean): 0
- hitc CCTE_Shafer_MEA_dev_interburst_interval_mean (2D rat cortical cultures [1]; rNFA mc5 hit call, aenm interburst_interval_mean): 0
- hitc CCTE_Shafer_MEA_dev_mutual_information_norm (2D rat cortical cultures [1]; rNFA mc5 hit call, aenm mutual_information_norm): 0
- hitc CCTE_Shafer_MEA_dev_network_spike_duration_std (2D rat cortical cultures [1]; rNFA mc5 hit call, aenm network_spike_duration_std): 0
- hitc CCTE_Shafer_MEA_dev_network_spike_number (2D rat cortical cultures [1]; rNFA mc5 hit call, aenm network_spike_number): 0
- hitc CCTE_Shafer_MEA_dev_network_spike_peak (2D rat cortical cultures [1]; rNFA mc5 hit call, aenm network_spike_peak): 0
- hitc CCTE_Shafer_MEA_dev_per_burst_interspike_interval (2D rat cortical cultures [1]; rNFA mc5 hit call, aenm per_burst_interspike_interval): 0
- hitc CCTE_Shafer_MEA_dev_per_burst_spike_percent (2D rat cortical cultures [1]; rNFA mc5 hit call, aenm per_burst_spike_percent): 0
- hitc CCTE_Shafer_MEA_dev_per_network_spike_spike_number_mean (2D rat cortical cultures [1]; rNFA mc5 hit call, aenm per_network_spike_spike_number_mean): 0
- hitc CCTE_Shafer_MEA_dev_per_network_spike_spike_percent (2D rat cortical cultures [1]; rNFA mc5 hit call, aenm per_network_spike_spike_percent): 0
- hitc CCTE_Shafer_MEA_dev_spike_duration_mean (2D rat cortical cultures [1]; rNFA mc5 hit call, aenm spike_duration_mean): 0
- Bioactivity in the rNFA (in words) (2D rat cortical cultures [1]): inactivity across all metrics in both models
- Bioactivity in the rNFA (in words) (2D rat cortical cultures [1]; listed as acetaminophen): inactive in both assays; also recorded: did not
- hitc CCTE_Shafer_MEA_dev_AB (2D rat cortical cultures [2]): 0
